Results on 22 molecules are retold here after patent US11285135B2 (AMGEN INC., priority 2016, dated 2022).

The target in experiment [1] is GDP-bound protein (aa 1-169), containing both G12C and C118A amino acid substitutions (Homo sapiens, UniProt P01116, C118A/G12C). Kind of experiment: Coupled Nucleotide Exchange Assay (SOS-mediated nucleotide exchange, AlphaScreen). It counts as biochemical. Conditions: 2 hours compound pre-incubation. The method, then: Coupled Nucleotide Exchange Assay: Purified GDP-bound […] protein (aa 1-169), containing both G12C and C118A amino acid substitutions and an N-terminal His-tag, was pre-incubated with a compound dose-response titration for 2 hours in assay buffer (25 mM HEPES pH 7.4, 10 mM MgCl2, and 0.01% Triton X-100). Following compound pre-incubation, purified SOS protein (aa 564-1049) and GTP (Roche 10106399001) were added to the assay wells and incubated for an additional hour. […] The assay plates were then read on a PerkinElmer EnVision Multilabel Reader, using AlphaScreen® technology, and data were analyzed using a 4-parameter logistic model to calculate IC50 values.
GDP-bound protein (aa 1-169), containing both G12C and C118A amino acid substitutions, sequence (P01116 1-169 isoform P01116-2 G12C/C118A): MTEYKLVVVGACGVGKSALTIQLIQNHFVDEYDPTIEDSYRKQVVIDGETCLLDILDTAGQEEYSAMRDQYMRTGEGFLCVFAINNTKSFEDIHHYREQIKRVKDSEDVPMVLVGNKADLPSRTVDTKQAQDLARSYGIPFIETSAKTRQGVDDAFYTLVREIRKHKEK

Experiment [2] relates to Phosphorylation of ERK½ in MIA PaCa-2 cells. The experiment is described as follows: Phospho-ERK½ MSD Assay in MIA PaCa-2 cells. Type of experiment: cell-based. Conditions: 4 hours compound treatment, 10 ng/mL EGF for 10 min, read-out: p-ERK IC50 (MIA PaCa-2). The method, then:
(§1) Phospho-ERK½ MSD Assay: MIA PaCa-2 (ATCC® CRL-1420™) and A549 (ATCC® CCL-185™) cells were cultured in RPMI 1640 Medium (ThermoFisher Scientific 11875093) containing 10% fetal bovine serum (ThermoFisher Scientific 16000044) and 1× penicillin-streptomycin-glutamine (ThermoFisher Scientific 10378016). Sixteen hours prior to compound treatment, MIA PaCa-2 or A549 cells were seeded in 96-well cell culture plates at a density of 25,000 cells/well and incubated at 37° C., 5% CO2. A compound dose-response titration was diluted in growth media, added to appropriate wells of a cell culture plate, and then incubated at 37° C., 5% CO2 for 4 hours. Following compound treatment, cells were stimulated with 10 ng/mL EGF (Roche 11376454001) for 10 min, washed with ice-cold Dulbecco's phosphate-buffered saline, no Ca^2+ or Mg^2+ (ThermoFisher Scientific 14190144), and then lysed in RIPA buffer (50 mM Tris-HCl pH 7.5, 1% Igepal, 0.5% sodium deoxycholate, 150 mM NaCl, and 0.5% sodium dodecyl sulfate) containing protease inhibitors (Roche 4693132001) and phosphatase inhibitors (Roche 4906837001). Cell lysates were stored frozen at −80° C. overnight. Phosphorylation of ERK½ in compound-treated lysates was assayed using Phospho-ERK½ Whole Cell Lysate kits (Meso Scale Discovery K151DWD) according to the manufacturer's protocol. Assay plates were read on a Meso Scale Discovery Sector Imager 6000, and data were analyzed using a 4-parameter logistic model to calculate IC50 values.

For experiment [3], the system named is Phosphorylation of ERK½ in A549 cells. Kind of experiment: Phospho-ERK½ MSD Assay in A549 cells. Type of experiment: cell-based. Conditions: 4 hours compound treatment, 10 ng/mL EGF for 10 min, read-out: p-ERK IC50 (A549). The procedure:
as §1

The mark [4] stands for this setting: Homo sapiens, MIA PaCa-2, MIA PaCa-2 cells.

Where two headings read alike, the source gives them in different places.

Regarding `C=CC(=O)N1CCN(c2snc3c(F)c(-c4cc(O)cc5ccccc45)c(Cl)cc23)C(CO)C1` (stereo in doubt) [Example 1-7, 1-((3R)-4-(5-chloro-7-fluoro-6-(3-hydroxy-1-naphthalenyl)-2,1-benzothiazol-3-yl)-3-(hydroxymethyl)-1-piperazinyl)-2-propen-1-one], the “Coupled exchange IC50” value in experiment [1] was found to be 0.209 µM. Moreover, the IC50 in experiment [2] (setting [4]) is 1.86 µM; in experiment [3] (Homo sapiens, A549, A549 cells) it was above 100 µM.

In the case of `C=CC(=O)N1CCN(c2snc3c(F)c(-c4cc(O)cc5ccccc45)c(Cl)cc23)C(C(=O)O)C1` (stereo not shown) [Example 22, 1-(5-chloro-7-fluoro-6-(3-hydroxy-1-naphthalenyl)-2,1-benzothiazol-3-yl)-4-(2-propenoyl)-2-piperazinecarboxylic acid], in experiment [1], the “Coupled exchange IC50” value turned out to be 0.927 µM. Further, the IC50 in experiment [2] (setting [4]) was 56.1 µM; in experiment [3] (Homo sapiens, A549, A549 cells), above 100 µM.

Consider `C=CC(=O)N1CCN(c2snc3c(F)c(-c4cc(O)c(F)cc4Cl)c(Cl)cc23)CC1` [Example 3-18, 1-(4-(5-chloro-6-(2-chloro-4-fluoro-5-hydroxyphenyl)-7-fluoro-2,1-benzothiazol-3-yl)-1-piperazinyl)-2-propen-1-one], for which the “Coupled exchange IC50” value in experiment [1] is 2.60 µM. Besides, the IC50 in experiment [2] (setting [4]) is above 100 µM; in experiment [3] (Homo sapiens, A549, A549 cells), above 100 µM.

On to `C=CC(=O)N1CCN(c2snc3nc(-c4cc(O)cc5ccccc45)c(Cl)cc23)C(C)C1` (single isomer, unassigned) [Example 2-5-2, 1-((3R)-4-(5-chloro-6-(3-hydroxy-1-naphthalenyl) [1,2]thiazolo[3,4-b]pyridin-3-yl)-3-methyl-1-piperazinyl)-2-propen-1-one or 1-((3S)-4-(5-ch1oro-6-(3-hydroxy-1-naphthalenyl) [1,2]thiazolo[3,4-b]pyridin-3-yl)-3-methyl-1-piperazinyl)-2-propen-1-one], for which, in experiment [1], the “Coupled exchange IC50” value came to 1.35 µM. Also, the IC50 was 7.48 µM in experiment [2] (MIA PaCa-2 cells) and 3.7 µM in experiment [3] (A549 cells).

With `C=CC(=O)N1CCN(c2snc3c(F)c(-c4cc(O)ccc4C)c(Cl)cc23)CC1` [Example 3-8, 1-(4-(5-chloro-7-fluoro-6-(5-hydroxy-2-methylphenyl)-2,1-benzothiazol-3-yl)-1-piperazinyl)-2-propen-1-one], the “Coupled exchange IC50” value in experiment [1] turned out to be 1.07 µM. Further, the IC50 in experiment [2] (setting [4]) is 7.05 µM; in experiment [3] (Homo sapiens, A549, A549 cells) it was above 100 µM.

For `C=CC(=O)N1CCN(c2snc3c(F)c(-c4cc(O)ccc4F)c(Cl)cc23)CC1` [Example 1-28, 1-(4-(5-chloro-7-fluoro-6-(2-fluoro-5-hydroxyphenyl)benzo[c]isothiazol-3-yl)piperazin-1-yl)prop-2-en-1-one], in experiment [1], the “Coupled exchange IC50” value was determined as 2.20 µM. For the same molecule, in experiment [3] (Homo sapiens, A549, A549 cells), the IC50 was above 100 µM.

Take `C=CC(=O)N1CCN(c2nc(=O)n(-c3ccncc3C3CC3)c3cc(-c4c(O)cccc4F)c(Cl)cc23)[C@@H](C)C1` (single isomer, unassigned) [Example 9-7-1]: the IC50 worked out at 0.023 µM in experiment [2] (MIA PaCa-2 cells) and 14.9 µM in experiment [3] (A549 cells).

`C=CC(=O)N1CCN(c2nc(=O)n(-c3ccccc3C(C)C)c3nc(-c4c(O)cccc4F)c(Cl)cc23)CC1` [Example 8-2, 6-chloro-7-(2-fluoro-6-hydroxyphenyl)-1-(2-(2-propanyl)phenyl)-4-(4-(2-propenoyl)-1-piperazinyl)pyrido[2,3-d]pyrimidin-2(1H)-one]: the IC50 in experiment [2] (setting [4]) was 0.05 µM; in experiment [3] (Homo sapiens, A549, A549 cells) it was above 100 µM.

Consider `C=CC(=O)N1CCN(c2snc3cc(-c4cc(O)cc5ccccc45)c(Cl)cc23)CC1` [Example 1-3], for which the IC50 was 3.84 µM in experiment [2] (setting [4]) and above 100 µM in experiment [3] (Homo sapiens, A549, A549 cells).

Consider `C=CC(=O)N1CC(Nc2snc3c(F)c(Br)c(Cl)cc23)C1` [Example 4-7, 1-(3-((6-bromo-5-chloro-7-fluoro-2,1-benzothiazol-3-yl)amino)-1-azetidinyl)-2-propen-1-one], for which the “Coupled exchange IC50” value in experiment [1] is 125 µM.

`C=CC(=O)N1CCN(c2snc3c(F)c(-c4nc(NC)cc5ccccc45)c(Cl)cc23)CC1` [Example 24, 1-(4-(5-Chloro-7-fluoro-6-(3-(methylamino)-1-isoquinolinyl)-2,1-benzothiazol-3-yl)-1-piperazinyl)-2-propen-1-one]: the “Coupled exchange IC50” value in experiment [1] stood at 6.20 µM.

Take `C=CC(=O)N1CCN(c2nnc(Cc3ccccc3)c3cc(Cl)c(-c4c(O)cccc4F)cc23)CC1` [Example 36, 2-(4-(4-acryloyl-1-piperazinyl)-1-benzyl-7-chloro-6-phthalazinyl)-3-fluorophenol]: in experiment [1], the “Coupled exchange IC50” value amounted to 39.8 µM.

Consider `C=CC(=O)N1CCN(c2snc3cc(-c4c(F)cccc4OC)c(Cl)cc23)CC1` [Example 1-5, 1-(4-(5-chloro-6-(2-fluoro-6-methoxyphenyl)-2,1-benzothiazol-3-yl)-1-piperazinyl)-2-propen-1-one], for which the “Coupled exchange IC50” value in experiment [1] amounted to 6.66 µM.

Regarding `C=CC(=O)N1CCN(c2snc3c(F)c(-c4cc(O)cc5cn(C)nc45)c(Cl)cc23)CC1` [Example 19-3, 1-(4-(5-chloro-7-fluoro-6-(5-hydroxy-2-methyl-2H-indazol-7-yl)-2,1-benzothiazol-3-yl)-1-piperazinyl)-2-propen-1-one], in experiment [1], the “Coupled exchange IC50” value came to 115 µM.

On to `C=CC(=O)N1CCN(c2snc3nc(-c4c(C)ccc5[nH]ncc45)c(Cl)cc23)C(C)C1` (single isomer, unassigned) [Example 2-6-1, 1-((3S)-4-(5-chloro-6-(5-methyl-1H-indazol-4-yl)[1,2]thiazolo[3,4-b]pyridin-3-yl)-3-methyl-1-piperazinyl)-2-propen-1-one or 1-((3R)-4-(5-chloro-6-(5-methyl-1H-indazol-4-yl)[1,2]thiazolo[3,4-b]pyridin-3-yl)-3-methyl-1-piperazinyl)-2-propen-1-one], for which the “Coupled exchange IC50” value in experiment [1] was 13.0 µM.

As for `C=CC(=O)N1CCN(c2snc3c(F)c(-c4cccc5ccncc45)c(Cl)cc23)CC1` [Example 3-3, 1-(4-(5-chloro-7-fluoro-6-(8-isoquinolinyl)-2,1-benzothiazol-3-yl)-1-piperazinyl)-2-propen-1-one], the “Coupled exchange IC50” value in experiment [1] came to 11.3 µM.

Consider `C=CC(=O)N1CCN(c2nc(=O)n(-c3ccncc3C3CC3)c3cc(-c4c(O)cccc4F)c(Cl)cc23)[C@@H](C)C1` (single isomer, unassigned) [Example 9-7-2], for which the values for the IC50 in experiment [2] (MIA PaCa-2 cells) and in experiment [3] (A549 cells) were 0.237 µM and 62 µM, respectively.

On to `C=C(CO)C(=O)N1CCN(c2snc3c(F)c(-c4cc(OC)cc5ccccc45)c(Cl)cc23)CC1` [Example 18-1, 1-(4-(5-chloro-7-fluoro-6-(3-methoxy-1-naphthalenyl)-2,1-benzothiazol-3-yl)-1-piperazinyl)-2-(hydroxymethyl)-2-propen-1-one], for which, in experiment [1], the “Coupled exchange IC50” value stood at 23.0 µM.

In the case of `C=CC(=O)NC1(CO)CN(c2snc3c(F)c(-c4cc(O)cc5ccccc45)c(Cl)cc23)C1` [Example 5-3, N-(1-(5-chloro-7-fluoro-6-(3-hydroxy-1-naphthalenyl)-2,1-benzothiazol-3-yl)-3-(hydroxymethyl)-3-azetidinyl)-2-propenamide], in experiment [1], the “Coupled exchange IC50” value was found to be 14.2 µM.

With `C=CC(=O)N1CCN(c2snc3c(F)c(-c4c(OC)ccc5ccccc45)c(Cl)cc23)CC1` [Example 1-13, 1-(4-(5-chloro-7-fluoro-6-(2-methoxy-1-naphthalenyl)-2,1-benzothiazol-3-yl)-1-piperazinyl)-2-propen-1-one], the “Coupled exchange IC50” value in experiment [1] is above 10 µM.

With `C=CC(=O)N1CCN(c2snc3c(F)c(-c4cc(N)ccc4F)c(Cl)cc23)CC1` [Example 3-14, 1-(4-(6-(5-amino-2-fluorophenyl)-5-chloro-7-fluoro-2,1-benzothiazol-3-yl)-1-piperazinyl)-2-propen-1-one], the “Coupled exchange IC50” value in experiment [1] was 5.64 µM.

For the molecule `C=CC(=O)N1CC2(C1)CN(c1snc3c(F)c(-c4cc(OC)cc5ccccc45)c(Cl)cc13)C2` [Example 4-3, 1-(6-(5-chloro-7-fluoro-6-(3-methoxy-1-naphthalenyl)-2,1-benzothiazol-3-yl)-2,6-diazaspiro[3,3]heptan-2-yl)-2-propen-1-one], the “Coupled exchange IC50” value in experiment [1] was above 250 µM.
